This note sets out measurements from US20200048267A1, “OGA INHIBITOR COMPOUNDS” (Janssen Pharmaceutica NV, priority 2017, published 2020).

For one data set, the target named is T1, OGA (Homo sapiens, UniProt O60502).
T1 construct: HEK293 cells inducible for P301L mutant human Tau (isoform 2N4R) were established at Janssen; endogenous in cells; host or cells: HEK293 cells inducible for P301L mutant human Tau (2N4R)
T1 sequence (O60502 1-916): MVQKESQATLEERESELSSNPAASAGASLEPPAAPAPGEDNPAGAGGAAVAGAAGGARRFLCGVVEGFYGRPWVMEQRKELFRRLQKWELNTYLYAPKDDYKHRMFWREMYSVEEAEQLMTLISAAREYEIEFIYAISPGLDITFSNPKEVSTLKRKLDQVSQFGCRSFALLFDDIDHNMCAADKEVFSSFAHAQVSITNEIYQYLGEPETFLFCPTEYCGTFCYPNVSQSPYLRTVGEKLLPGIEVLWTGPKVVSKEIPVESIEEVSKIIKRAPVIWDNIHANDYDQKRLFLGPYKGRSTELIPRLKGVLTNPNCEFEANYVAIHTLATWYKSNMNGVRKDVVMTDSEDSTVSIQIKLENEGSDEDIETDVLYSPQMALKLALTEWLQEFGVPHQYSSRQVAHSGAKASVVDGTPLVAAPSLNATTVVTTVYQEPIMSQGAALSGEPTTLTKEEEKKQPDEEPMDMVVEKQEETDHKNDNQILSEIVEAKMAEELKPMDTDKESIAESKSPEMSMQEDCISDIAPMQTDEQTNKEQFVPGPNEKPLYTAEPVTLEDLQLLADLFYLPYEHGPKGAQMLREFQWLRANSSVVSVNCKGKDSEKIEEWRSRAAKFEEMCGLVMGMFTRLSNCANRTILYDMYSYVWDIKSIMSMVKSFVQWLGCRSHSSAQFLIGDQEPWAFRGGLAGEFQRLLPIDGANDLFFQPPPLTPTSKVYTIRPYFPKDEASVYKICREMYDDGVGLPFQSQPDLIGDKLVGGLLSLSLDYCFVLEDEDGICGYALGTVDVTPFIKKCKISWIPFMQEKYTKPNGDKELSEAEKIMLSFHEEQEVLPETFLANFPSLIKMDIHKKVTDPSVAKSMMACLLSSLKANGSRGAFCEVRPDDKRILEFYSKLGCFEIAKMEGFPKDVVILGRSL
The experiment in a line: OGA cellular assay (ICC detection of O-GlcNAcylated proteins in HEK293 cells inducible for P301L mutant human Tau). In kind it is cell-based. Conditions: 6 hours incubation; for EC50: read-out: CELLULAR hOGA, pEC50 (converted).

The target of data set [1] is T2, recombinant human Meningioma Expressed Antigen 5 (MGEA5), also referred to as O-GlcNAcase (OGA) (Homo sapiens, UniProt O60502).
T2 construct: Full length OGA enzyme was purchased at OriGene (cat # TP322411); purchased OriGene TP322411
T2 sequence (O60502 1-916): T1 sequence (O60502 1-916)
The data set is described as follows: OGA biochemical assay (inhibition of FM-GlcNAc hydrolysis, fluorescence). As to conditions: for Emax: read-out: ENZYMATIC Emax (%); for IC50: read-out: ENZYMATIC hOGA, pIC50 (converted).

Molecules are shown by their SMILES. Bounds are passed on as bounds.

In general, Emax refers to the size of the effect at its maximum, as opposed to the concentration needed. One may read the melting point as the temperature of the solid-liquid transition. In turn, `Cc1cc(N2CCC3(CCN(C(C)c4ccc5sc(C)nc5c4)C3)C2)nc(C)n1` (stereo not shown) [Product 31] showed a melting point of 230 °C. In addition, at OGA, the Emax was 23.7% and the EC50 is over 1 µM. In data set [1], the Emax was 102% and the IC50 is 0.0339 µM.

Consider `Cc1cc(N2CCC3(CCN(C(C)c4ccc5nccnc5c4)C3)C2)nc(C)n1.Cl` (stereo not shown) [Product 20], for which the melting point amounted to 173.1 °C. Besides, on OGA, the Emax is 14.9% and the EC50 is over 1000 µM. In addition, in data set [1], the Emax came out at 97.6% and the IC50 is 0.117 µM.
